Measurements from patent publication US11584763B2, “Chromenopyridine derivatives as phosphatidylinositol phosphate kinase inhibitors” (HIBERCELL, INC., priority 2017, dated 2023).

Key:
Format in all cases: biochemical
PIP4K 2A [1] = molecular target: T1, PIP4K 2A (Homo sapiens, UniProt P48426); assay: Kinase Assay PIP4K2 A (PIP4KtypeIIA inhibition assay); set-up: made in house; host or cells: E. coli; details: compounds listed under IC50 bin headings
T1 sequence (P48426 1-406): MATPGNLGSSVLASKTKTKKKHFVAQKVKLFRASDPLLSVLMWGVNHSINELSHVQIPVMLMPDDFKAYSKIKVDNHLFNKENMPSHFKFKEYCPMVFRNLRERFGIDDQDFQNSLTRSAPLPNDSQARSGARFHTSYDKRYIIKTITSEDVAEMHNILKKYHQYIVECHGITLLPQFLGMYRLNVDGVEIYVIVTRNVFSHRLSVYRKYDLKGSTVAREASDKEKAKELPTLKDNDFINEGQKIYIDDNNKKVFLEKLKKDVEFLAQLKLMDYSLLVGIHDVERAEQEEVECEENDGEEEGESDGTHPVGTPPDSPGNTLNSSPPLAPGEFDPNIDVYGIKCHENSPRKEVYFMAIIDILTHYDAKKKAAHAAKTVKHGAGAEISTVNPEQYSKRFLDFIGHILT
Excerpt: GST tagged PIP4KtypeIIA and B enzymes were overexpressed in E. Coli and purified to >80% homogeneity. Phosphatidyl inositol-5-phosphate (PI5P, Cat. #850152, Avanti Polar Lipids Inc.) was used as the lipid substrate and phosphatidyl ethanolamine (DOPE 18:1, Cat. #850725, Avanti Polar Lipids Inc.) was used as the carrier lipid for assays. Ultrapure ATP and GTP was purchased from Bellbrooke Labs. ADP Glo reagents were obtained from Promega. Transcreener FI reagent was obtained from Bellbrooke labs.
Enzyme preparation: GST-tagged PIP4KtypeIIA (5 uL, 1.43 mg/mL) was diluted (1:10) to 50 uL using HNE buffer. From the 1:10 diluted stock, a 6.4 uL aliquot was diluted further to 5 mL using HNE buffer to yield 5× enzyme stock (2.5 nM).
Lipid Preparation: In a 10 mL pyrex glass vial, 1 ug of PI5P and 1 ug of DOPE were suspended in 2.5 mL of HEPES buffer mix and 2.5 mL of H:E buffer. The contents were mixed and sonicated for 3 min to yield a translucent lipid stock.
Compound Preparation: Compounds were stored as 5 mM stocks in neat DMSO as room temperature in glass vials. 5 mM stocks were diluted to 2 mM and then serially diluted (3×) in neat DMSO in 96 well polypropylene plates. From the serially diluted stocks, 3 uL was delivered into 250 uL of 25% DMSO (in water) to generate 5× compound stocks. Typically, the highest compound conc. was 24 uM.
The assay volume was kept at 25 uL. To each well of the reaction plate, 10 uL of lipid stock (1:1 ratio PI5P:DOPE) was delivered. This was followed by the addition of 5 uL of compound in 25% DMSO. Then, to each well, 5 uL of 2.5 nM (5×) typeIIA enzyme was delivered. The contents were mixed well and incubated for 1 h at 27 C. After 1 h, reaction was initiated by adding 5 uL of 50 uM ATP and the contents were mixed well with a multi-channel pipetteman. The final concentration of the reagents are as follows: 50 mM HEPES, pH 7.3, 10 mM MgCl2, 20 mM NaCl, 0.01% v/v triton-X100, 5% DMSO, 10 uM ATP, 80 uM (2 ug) PI5P, 2 ug DOPE, and 0.5 nM PIP4KIIA. Typically, the highest conc. of compounds was 4.8 uM and the lowest conc. was 0.
After 1 hr, the reaction was quenched by adding 25 uL of ADP Glo reagent. The contents were incubated for 1 hr. Afterwards, 50 uL of kinase detection reagent was delivered. The contents were incubated for another hour. The luminescence was read using Molecular Devices Paradigm plate reader. […] The blanks were averaged and subtracted from all other wells. Using a calibration curve, RLU was converted to uM ADP (product). IC50 was calculated by plotting the residual activity (expressed as % No inhibitor control) vs. log [Inh. conc.]

PIP4K2B = molecular target: T2, PIP4K2B (Homo sapiens, UniProt P78356); assay: Trans-FI P kinase assay PIP4K2B (PIP4KtypeIIB inhibition assay); details: compounds listed under IC50 bin headings; 100 uM GTP; read-out: Trans-FI P kinase assays: PIP4K2B IC50
T2 construct: made in house; host or cells: E. coli
T2 sequence (P78356 1-416): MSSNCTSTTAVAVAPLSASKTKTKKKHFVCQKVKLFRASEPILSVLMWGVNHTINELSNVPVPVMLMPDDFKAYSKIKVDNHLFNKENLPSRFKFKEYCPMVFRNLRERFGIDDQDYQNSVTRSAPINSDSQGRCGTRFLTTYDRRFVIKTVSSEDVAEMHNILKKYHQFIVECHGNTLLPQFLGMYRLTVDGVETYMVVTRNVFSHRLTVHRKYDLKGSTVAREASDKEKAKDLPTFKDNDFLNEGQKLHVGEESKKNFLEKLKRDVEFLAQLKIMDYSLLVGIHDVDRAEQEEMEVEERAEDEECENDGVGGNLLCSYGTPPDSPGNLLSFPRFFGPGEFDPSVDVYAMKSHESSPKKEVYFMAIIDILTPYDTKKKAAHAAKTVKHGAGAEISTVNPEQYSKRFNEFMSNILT
Summary of the method: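 Transcreener FI fluorescence read-out of GDP formed by E. coli-expressed GST-PIP4K2B (5 nM) using 100 uM GTP and 80 uM PI5P with DOPE carrier lipid, pH 7.3, 2 h reaction. Compounds (up to 4.8 uM) were preincubated with enzyme 1 h at 27 C; IC50 fitted from residual activity relative to no-inhibitor control.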

PIP4K 2A [2] = molecular target: T1, PIP4K 2A; assay: ADP-glo kinase assay PIP4K 2A; set-up: 4 nM PIP4K2A (full length protein, SignalChem); purchased SignalChem; details: compounds listed under IC50 bin headings
Summary of the method: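 Inhibition was calculated versus DMSO controls from ADP-Glo luminescence and fitted to IC50 over a 10-point, threefold series. Compound was first pre-incubated 15 min at room temperature with PIP4K2A (full-length; 4 nM in the enzyme/substrate mix) and PI(5)P diC8 (100 μM in that mix). The reaction then ran for 1 h after adding 60 μM ATP solution, in MOPS pH 7.2/MgCl2/Tween buffer.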

IC50 (PIP4K 2A [1]) [nM] | IC50 (PIP4K2B) [nM] | IC50 (PIP4K 2A [2]) [nM] | SMILES
1 to 10 | 100 to 1000 | 1 to 10 | CC1Oc2cc(N3CCCC3=O)ccc2-c2cnc(Nc3cccnc3)cc21 (stereo not drawn) [Example 38, 1-(5-methyl-3-(pyridin-3-ylamino)-5H-chromeno[4,3-c]pyridin-8-yl)pyrrolidin-2-one]
≤ 1 | 1 to 10 | ≤ 1 | CC1Oc2cc(N3CCCC3=O)ccc2-c2cnc(Nc3cnc4c(c3)N3C(=O)CC[C@H]3CO4)cc21 (stereo partly drawn) [Example 40, (6aS)-2-((5-methyl-8-(2-oxopyrrolidin-1-yl)-5H-chromeno[4,3-c]pyridin-3-yl)amino)-6,6a,7,8-tetrahydro-9H-pyrido[2,3-b]pyrrolo[1,2-d][1,4]oxazin-9-one]
1 to 10 | > 1000 | 10 to 100 | CC1Oc2cc(N3CCCC3=O)ccc2-c2cnc(Nc3cncc(OC(F)F)c3)cc21 (stereo not drawn) [Example 41, 1-(3-((5-(difluoromethoxy)pyridin-3-yl)amino)-5-methyl-5H-chromeno[4,3-c]pyridin-8-yl)pyrrolidin-2-one]
≤ 1 | 10 to 100 | 1 to 10 | CC(=O)N1CCOc2ncc(Nc3cc4c(cn3)-c3ccc(N5CCCC5=O)cc3OC4C)cc21 (stereo not drawn) [Example 42, 1-(3-((1-acetyl-2,3-dihydro-1H-pyrido[2,3-b][1,4]oxazin-7-yl)amino)-5-methyl-5H-chromeno[4,3-c]pyridin-8-yl)pyrrolidin-2-one]
10 to 100 | > 1000 | 10 to 100 | CC1c2cc(Nc3cccnc3)ncc2-c2ccc(N3CCCC3=O)cc2N1C (stereo not drawn) [Example 43, 1-(5,6-dimethyl-3-(pyridin-3-ylamino)-5,6-dihydrobenzo[c][2,6]naphthyridin-8-yl)pyrrolidin-2-one]
≤ 1 | 10 to 100 | 1 to 10 | CC1c2cc(Nc3cnc4c(c3)N3C(=O)CC[C@H]3CO4)ncc2-c2ccc(N3CCCC3=O)cc2N1C (stereo partly drawn) [Example 44, (6aS)-2-((5,6-dimethyl-8-(2-oxopyrrolidin-1-yl)-5,6-dihydrobenzo[c][2,6]naphthyridin-3-yl)amino)-6,6a,7,8-tetrahydro-9H-pyrido[2,3-b]pyrrolo[1,2-d][1,4]oxazin-9-one]
1 to 10 | 100 to 1000 | 10 to 100 | CC1c2cc(Nc3cnc4c(c3)OCCO4)ncc2-c2ccc(N3CCCC3=O)cc2N1C (stereo not drawn) [Example 45, 1-(3-((2,3-dihydro-[1,4]dioxino[2,3-b]pyridin-7-yl)amino)-5,6-dimethyl-5,6-dihydrobenzo[c][2,6]naphthyridin-8-yl)pyrrolidin-2-one]
1 to 10 | 100 to 1000 | 10 to 100 | CC1Oc2cc(N3CCCC3=O)c(F)cc2-c2cnc(Nc3cccnc3)cc21 (stereo not drawn) [Example 46, 1-(9-fluoro-5-methyl-3-(pyridin-3-ylamino)-5H-chromeno[4,3-c]pyridin-8-yl)pyrrolidin-2-one]
≤ 1 | 1 to 10 | ≤ 1 | CC1Oc2cc(N3CCCC3=O)c(F)cc2-c2cnc(Nc3cnc4c(c3)N3C(=O)CC[C@H]3CO4)cc21 (stereo partly drawn) [Example 47, (6aS)-2-((9-fluoro-5-methyl-8-(2-oxopyrrolidin-1-yl)-5H-chromeno[4,3-c]pyridin-3-yl)amino)-6,6a,7,8-tetrahydro-9H-pyrido[2,3-b]pyrrolo[1,2-d][1,4]oxazin-9-one]
1 to 10 | 100 to 1000 | 1 to 10 | CC1Oc2cc(N3CCCC3=O)ccc2-c2cnc(Nc3cncc(N(C)S(C)(=O)=O)c3)cc21 (stereo not drawn) [Example 48, N-methyl-N-(5-((5-methyl-8-(2-oxopyrrolidin-1-yl)-5H-chromeno[4,3-c]pyridin-3-yl)amino)pyridin-3-yl)methanesulfonamide]
≤ 1 | 100 to 1000 | 1 to 10 | CC1Oc2cc(N3CCCC3=O)ccc2-c2cnc(Nc3cnc4c(c3)N(S(C)(=O)=O)CCO4)cc21 (stereo not drawn) [Example 49, 1-(5-methyl-3-((1-(methylsulfonyl)-2,3-dihydro-1H-pyrido[2,3-b][1,4]oxazin-7-yl)amino)-5H-chromeno[4,3-c]pyridin-8-yl)pyrrolidin-2-one]
1 to 10 | > 1000 | 10 to 100 | CC1Oc2cc(N3CCCC3=O)ccc2-c2cnc(Nc3cncc(F)c3)cc21 (stereo not drawn) [Example 50, 1-(3-((5-fluoropyridin-3-yl)amino)-5-methyl-5H-chromeno[4,3-c]pyridin-8-yl)pyrrolidin-2-one]
≤ 1 | 10 to 100 | 1 to 10 | CC1Oc2cc(N3CCCC3=O)ccc2-c2cnc(Nc3cncc(N(C4CC4)S(C)(=O)=O)c3)cc21 (stereo not drawn) [Example 51, N-cyclopropyl-N-(5-((5-methyl-8-(2-oxopyrrolidin-1-yl)-5H-chromeno[4,3-c]pyridin-3-yl)amino)pyridin-3-yl)methanesulfonamide]
≤ 1 | 100 to 1000 | 1 to 10 | CC1Oc2cc(N3CCCC3=O)ccc2-c2cnc(Nc3cnc4c(c3)N(S(=O)(=O)C3CC3)CCO4)cc21 (stereo not drawn) [Example 52, 1-(3-((1-(cyclopropylsulfonyl)-2,3-dihydro-1H-pyrido[2,3-b][1,4]oxazin-7-yl)amino)-5-methyl-5H-chromeno[4,3-c]pyridin-8-yl)pyrrolidin-2-one]
≤ 1 | 10 to 100 | 1 to 10 | CC1Oc2cc(N3CCCC3=O)ccc2-c2cnc(Nc3cncc(N4CCN(C)C4=O)c3)cc21 (stereo not drawn) [Example 53, 1-methyl-3-(5-((5-methyl-8-(2-oxopyrrolidin-1-yl)-5H-chromeno[4,3-c]pyridin-3-yl)amino)pyridin-3-yl)imidazolidin-2-one]
≤ 1 | 10 to 100 | 1 to 10 | CC1Oc2cc(N3CCCC3=O)ccc2-c2cnc(Nc3cncc(N4CCCC4=O)c3)cc21 (stereo not drawn) [Example 54, 1-(5-methyl-3-((5-(2-oxopyrrolidin-1-yl)pyridin-3-yl)amino)-5H-chromeno[4,3-c]pyridin-8-yl)pyrrolidin-2-one]
